Laboratory results published in PubChem BioAssay (NCI).
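Tested at 5 concentrations; 48 h exposure; 96-well plates; endpoints linearly interpolated, else capped at highest concentration. TGI denotes the concentration required for complete inhibition of growth.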

Legend:
Assay in all cases: growth of human tumour cells (NCI), 48 h
[1] = system: 786-0 renal
[2] = system: A498 renal
[3] = system: A549 NSCLC
[4] = system: ACHN renal
[5] = system: CAKI-1 renal
[6] = system: CCRF-CEM leukemia
[7] = system: COLO 205 colon
[8] = system: DLD-1 colon
[9] = system: DMS 114 small cell lung
[10] = system: DMS 273 small cell lung
[11] = system: EKVX NSCLC
[12] = system: HCC-2998 colon
[13] = system: HCT-116 colon
[14] = system: HCT-15 colon
[15] = system: HL-60(TB) leukemia
[16] = system: HOP-18 NSCLC
[17] = system: HOP-62 NSCLC
[18] = system: HOP-92 NSCLC
[19] = system: HT29 colon
[20] = system: IGROV1 ovarian
[21] = system: K-562 leukemia
[22] = system: KM12 colon
[23] = system: KM20L2 colon
[24] = system: LOX IMVI melanoma
[25] = system: LXFL 529 NSCLC
[26] = system: M14 melanoma
[27] = system: M19-MEL melanoma
[28] = system: MALME-3M melanoma
[29] = system: MOLT-4 leukemia
[30] = system: NCI-H226 lung
[31] = system: NCI-H23 lung
[32] = system: NCI-H460 lung
[33] = system: NCI-H522 lung
[34] = system: OVCAR-3 ovarian
[35] = system: OVCAR-4 ovarian
[36] = system: OVCAR-5 ovarian
[37] = system: OVCAR-8 ovarian
[38] = system: RPMI-8226 leukemia
[39] = system: RXF 393 renal
[40] = system: RXF-631 renal
[41] = system: SF-268 CNS
[42] = system: SF-295 CNS
[43] = system: SF-539 CNS
[44] = system: SK-MEL-2 melanoma
[45] = system: SK-MEL-28 melanoma
[46] = system: SK-MEL-5 melanoma
[47] = system: SK-OV-3 ovarian
[48] = system: SN12C renal
[49] = system: SNB-19 CNS
[50] = system: SNB-75 CNS
[51] = system: SNB-78 CNS
[52] = system: SR leukemia
[53] = system: SW-620 colon
[54] = system: TK-10 renal
[55] = system: U251 CNS
[56] = system: UACC-257 melanoma
[57] = system: UACC-62 melanoma
[58] = system: UO-31 renal

Measured: TGI

CC1=C(c2cc(C(=O)Nc3cc(C)ccc3C)nc(N)n2)Sc2ccccc2N1
> 100 µM: all assays above
